Where a name gives a salt, the structure may show the parent alone.
The compounds below were run against T1, human H1 receptor (Homo sapiens, UniProt P35367) (assay: Histamine H1 receptor binding, competition displacement of [3H]-pyrilamine). Settings: displacement of 1 nM [3H]-pyrilamine; membranes from recombinant CHO-K1 cells expressing the human H1 receptor; 1 hour at room temperature; read-out: H1 pKi/[1328_S] (converted).
T1 construct: purchased Euroscreen SA, Brussels, Belgium ES-390-M; host or cells: CHO-K1 cells (membranes)
T1 sequence (P35367 whole entry): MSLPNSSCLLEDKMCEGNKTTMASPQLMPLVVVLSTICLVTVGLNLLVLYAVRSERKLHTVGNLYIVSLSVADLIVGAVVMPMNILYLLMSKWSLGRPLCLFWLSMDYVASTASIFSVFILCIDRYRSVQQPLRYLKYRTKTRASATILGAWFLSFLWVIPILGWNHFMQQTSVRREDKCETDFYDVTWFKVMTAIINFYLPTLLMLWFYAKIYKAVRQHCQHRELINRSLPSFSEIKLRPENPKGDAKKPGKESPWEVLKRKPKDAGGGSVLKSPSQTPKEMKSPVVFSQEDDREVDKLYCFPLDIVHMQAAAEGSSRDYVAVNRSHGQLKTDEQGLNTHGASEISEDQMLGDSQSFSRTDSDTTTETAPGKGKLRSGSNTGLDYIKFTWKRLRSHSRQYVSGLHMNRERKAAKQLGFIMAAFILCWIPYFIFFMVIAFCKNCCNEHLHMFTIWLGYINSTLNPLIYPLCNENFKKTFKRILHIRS

SMILES	Ki
Cc1c(OC2CCN(CC3CCN(c4ccc(CC(=O)O)cc4)CC3)CC2)ccc(Cl)c1Cl [Example 33, [4-(4-{[4-(3,4-Dichloro-2-methylphenoxy)piperidin-1-yl]methyl}piperidin-1-yl)phenyl]acetic acid]	12.6 nM
C[C@@H](Oc1ccccc1N1CCC(CN2CCC(Oc3ccc(Cl)c(Cl)c3)CC2)CC1)C(=O)O [Example 28, (2R)-2-[2-(4-{[4-(3,4-Dichlorophenoxy)piperidin-1-yl]methyl}piperidin-1-yl)phenoxy]propanoic acid]	10 nM
O=C(O)COc1c(Cl)cccc1N1CCC(CN2CCC(Oc3ccc(Cl)c(Cl)c3)CC2)CC1 [Example 40, (2-chloro-6-{4-[4-(3,4-dichloro-phenoxy)-piperidin-1-ylmethyl]-piperidin-1-yl}-phenoxy)-acetic acid]	3.16 nM
Cc1c(OC2CCN(CC3CCN(c4cccc(O[C@@H](C)C(=O)O)c4)CC3)CC2)ccc(Cl)c1Cl [Example 44, (2S)-2-[3-(4-{[4-(3,4-dichloro-2-methylphenoxy)piperidin-1-yl]methyl}piperidin-1-yl)phenoxy]propanoic acid]	20 nM
CC(C)(Oc1ccccc1N1CCC(CN2CCC(Oc3ccc(Cl)c(Cl)c3)CC2)CC1)C(=O)O [Example 27, 2-[2-(4-{[4-(3,4-Dichlorophenoxy)piperidin-1-yl]methyl}piperidin-1-yl)phenoxy]-2-methylpropanoic acid]	31.6 nM
Cc1c(OC2CCN(CC3CCN(c4cccc(O[C@H](C)C(=O)O)c4)CC3)CC2)ccc(C#N)c1Cl [Example 37, (2R)-2-[3-(4-{[4-(3-Chloro-4-cyano-2-methylphenoxy)piperidin-1-yl]methyl}piperidin-1-yl)phenoxy]propanoic acid]	398 nM
C[C@@H](Oc1cccc(N2CCC(CN3CCC(Oc4ccc(Cl)c(Cl)c4)CC3)CC2)c1)C(=O)O [Example 30, (2R)-2-[3-(4-{[4-(3,4-Dichlorophenoxy)piperidin-1-yl]methyl}piperidin-1-yl)phenoxy]propanoic acid]	12.6 nM
C[C@H](Oc1ccccc1N1CCC(CN2CCC(Oc3ccc(Cl)c(Cl)c3)CC2)CC1)C(=O)O [Example 29, (2S)-2-[2-(4-{[4-(3,4-Dichlorophenoxy)piperidin-1-yl]methyl}piperidin-1-yl)phenoxy]propanoic acid]	12.6 nM
O=C(O)COc1ccc(Cl)cc1N1CCC(CN2CCC(Oc3ccc(Cl)c(Cl)c3)CC2)CC1 [Example 39, (4-Chloro-2-{4-[4-(3,4-dichloro-phenoxy)-piperidin-1-ylmethyl]-piperidin-1-yl}-phenoxy)-acetic acid hydrochloride]	2 nM
COc1ccc(CC(=O)O)cc1N1CCC(CN2CCC(Oc3ccc(Cl)c(Cl)c3)CC2)CC1 [Example 23, [3-(4-{[4-(3,4-Dichlorophenoxy)piperidin-1-yl]methyl}piperidin-1-yl)-4-methoxyphenyl]acetic acid]	12.6 nM

Source: patent US20080262037A1, “Piperidine Derivatives for the Treatment of Chemokine Mediated Disease” (ASTRAZENECA AB, priority 2004, published 2008)
